Test results reported in article PMC4208661, “SGLT2 inhibitors act from the extracellular surface of the cell membrane” (Physiological Reports, 2014).
Like-named read-outs stand apart in the source and are kept apart here. Blank lines part the entries; values can stand above or below the compound they belong to.

What was measured:
hSGLT1 [1] = molecular target: T1, hSGLT1 (Homo sapiens, UniProt P13866); assay: Whole-cell patch clamp, inward glucose current with inhibitor in the intracellular (pipette) solution, hSGLT1; assay type: cell-based; parameters: transfected with 1 μg of the vector containing the hSGLT2 or hSGLT1 coding region; expressed in transfected cells; host or cells: HEK-293T
T1 sequence (P13866 1-664): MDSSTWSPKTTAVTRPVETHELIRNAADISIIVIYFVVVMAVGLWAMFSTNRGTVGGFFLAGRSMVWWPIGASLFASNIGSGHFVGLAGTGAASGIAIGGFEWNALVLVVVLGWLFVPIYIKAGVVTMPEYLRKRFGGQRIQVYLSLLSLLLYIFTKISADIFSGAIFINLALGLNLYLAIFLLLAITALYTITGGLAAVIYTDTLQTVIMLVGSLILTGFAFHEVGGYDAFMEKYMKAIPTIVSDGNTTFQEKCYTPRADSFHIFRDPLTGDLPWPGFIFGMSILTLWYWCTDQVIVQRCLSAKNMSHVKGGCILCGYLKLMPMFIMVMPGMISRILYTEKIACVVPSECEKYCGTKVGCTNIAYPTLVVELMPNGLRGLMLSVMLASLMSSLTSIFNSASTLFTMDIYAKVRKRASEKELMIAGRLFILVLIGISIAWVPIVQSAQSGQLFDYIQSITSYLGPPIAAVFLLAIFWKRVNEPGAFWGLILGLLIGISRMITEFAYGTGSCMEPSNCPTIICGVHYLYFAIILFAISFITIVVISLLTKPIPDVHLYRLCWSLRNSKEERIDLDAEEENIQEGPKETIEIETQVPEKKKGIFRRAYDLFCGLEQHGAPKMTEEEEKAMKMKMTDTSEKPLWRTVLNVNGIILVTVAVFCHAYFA
Description: (§1) The intracellular NaCl concentration was maintained at either 5 or 150 mmol/L using CsCl to replace NaCl (Fig. 5A and B).

hSGLT1 [2] = molecular target: T1, hSGLT1; conditions: 300 nmol/L TA-3404, 50 μmol/L α-MDG, HEK-293T, 37°C
Experimental: In brief, cells were incubated for 30 min in 50 μmol/L [^14C]‐α‐Methyl‐D‐glucopyranoside (GE HealthCare Life Sciences, Piscataway, NJ), a specific substrate for SGLTs, and washed in cold Choline buffer three times. The cells were solubilized and a sample was assayed using scintillation counting. Uptake was normalized to total cellular protein. For each tested condition, the sample size was n = 3–4 wells and each experiment was repeated at least twice.

hSGLT2 [3] = molecular target: T2, hSGLT2 (Homo sapiens, UniProt P31639); assay: Whole-cell patch clamp, inward glucose current with inhibitor in the intracellular (pipette) solution, hSGLT2; assay type: cell-based; parameters: transfected with 1 μg of the vector containing the hSGLT2 or hSGLT1 coding region; expressed in transfected cells; host or cells: HEK-293T
T2 sequence (P31639 1-672): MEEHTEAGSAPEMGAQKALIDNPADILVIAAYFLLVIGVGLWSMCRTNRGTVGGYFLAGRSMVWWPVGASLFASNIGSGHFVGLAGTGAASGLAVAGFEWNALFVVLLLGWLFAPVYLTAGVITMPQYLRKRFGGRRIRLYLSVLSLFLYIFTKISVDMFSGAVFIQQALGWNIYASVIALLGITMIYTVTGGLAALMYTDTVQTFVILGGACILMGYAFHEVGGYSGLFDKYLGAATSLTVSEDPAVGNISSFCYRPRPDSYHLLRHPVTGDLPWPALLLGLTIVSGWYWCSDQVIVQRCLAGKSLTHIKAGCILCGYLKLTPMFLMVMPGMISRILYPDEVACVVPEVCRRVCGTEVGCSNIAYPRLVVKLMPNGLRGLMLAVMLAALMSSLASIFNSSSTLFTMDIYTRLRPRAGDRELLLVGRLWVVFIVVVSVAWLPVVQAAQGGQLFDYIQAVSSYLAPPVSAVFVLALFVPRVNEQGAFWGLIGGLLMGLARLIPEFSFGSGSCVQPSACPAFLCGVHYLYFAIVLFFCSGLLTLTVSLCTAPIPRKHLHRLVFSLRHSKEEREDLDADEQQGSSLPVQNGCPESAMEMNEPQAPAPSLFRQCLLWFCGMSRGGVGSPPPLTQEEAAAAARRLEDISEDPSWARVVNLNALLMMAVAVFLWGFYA
Description: as §1

[4] = parameters: method as in Koga et al. [2013]; conditions: ref Koga et al. [2013]; cited from earlier work
hSGLT2 [5] = molecular target: T2, hSGLT2; parameters: method as in Koga et al. [2013]; conditions: ref Koga et al. [2013], cited from earlier work
hSGLT1 [6] = molecular target: T1, hSGLT1; assay: Whole-cell patch clamp, glucose-induced current, extracellular inhibitor, HEK-293T cells expressing hSGLT1
Experimental: In brief, 2 days after transfection cells were plated on 12‐mm poly‐L‐lysine‐coated glass coverslips and selected on the basis of fluorescence intensity using a Nikon diaphot epifluorescence microscope (Nikon, Tokyo, Japan). During the experiment cells were kept at the holding potential Vh = −60 mV. […] Currents were filtered at 2 kHz and digitized at 1 kHz.
Glucose currents (IGlu) were obtained by subtracting the baseline current recorded in Na^+ buffer to the total current measured in Na^+ buffer + glucose: [drawing 1]
The inhibition constant (IC50) was determined by measuring the sugar‐dependent steady‐state current or radiotracer uptake as a function of external inhibitor concentration.
The D‐glucose‐coupled current recovery follows an exponential time course with time constant 1/koff and half‐time for recovery (t1/2,off) related to the off rate: [drawing 3]
The ON rate (kon) is calculated from the empirically measured Ki values and koff values: [drawing 4]
To calculate the dissociation constant (koff) we measured the recovery time of SGLT glucose‐induced current when the inhibitor is rapidly removed from the extracellular solution.

hSGLT2 [7] = molecular target: T2, hSGLT2; assay: [14C]-αMDG uptake in HEK-293T cells expressing hSGLT2; assay type: cell-based; parameters: transfected with 1 μg of the vector containing the hSGLT2 or hSGLT1 coding region; expressed in transfected cells; host or cells: HEK-293T
Experimental: Uptake was normalized to total cellular protein.
We decided to use two different approaches due to the fact that hSGLT2 has low expression, yielding small glucose‐induced currents. For radiotracer uptake experiments, tracer entry in the cell is measured over the period of 30 min leading to a higher sensitivity of the method.

hSGLT2 [8] = molecular target: T2, hSGLT2; assay: Whole-cell patch clamp, glucose-induced current, extracellular inhibitor, HEK-293T cells expressing hSGLT2; assay type: cell-based; parameters: transfected with 1 μg of the vector containing the hSGLT2 or hSGLT1 coding region; expressed in transfected cells; host or cells: HEK-293T
hSGLT2 [9] = molecular target: T2, hSGLT2; parameters: transfected with 1 μg of the vector containing the hSGLT2 or hSGLT1 coding region; expressed in transfected cells; host or cells: HEK-293T; conditions: ref Hummel et al. [2011], cited from earlier work
[10] = after 24 h, single clinical oral dose; ref Hummel et al. [2012]; cited from earlier work
[11] = tested on: renal glucose reabsorption; conditions: cited from earlier work
hSGLT2 over hSGLT1 = tested on: hSGLT2 over hSGLT1; parameters: method as in Nomura et al. [2010]; conditions: from IC50; ref Nomura et al. [2010]; cited from earlier work
[12] = physiological conditions, HEK293T cells
[13] = ref Chasis et al. [1933], Silverman [1974]

effect on inward hSGLT1 Na+/glucose current (hSGLT1 [1]; 200 nmol/L TA-3404 intracellular, 5 mmol/L NaCl in the pipette, 10 mmol/L glucose): no effect
effect on hSGLT1 glucose-induced current (hSGLT1 [1]; 200 nmol/L TA-3404 intracellular, 150 mmol/L Na+ in the pipette): did not detect any significant effect
inhibition of Na+/glucose currents generated by hSGLT1, inhibitor in the cytoplasm (hSGLT1 [1]; [12]): does not inhibit
inhibition of hSGLT1 uptake (hSGLT1 [2]): 10%
inhibition of inward hSGLT2 Na+/glucose current (hSGLT2 [3]; 200 nmol/L TA-3404 intracellular, 5 mmol/L intracellular Na+, 100 mmol/L glucose, -60 mV): did not inhibit
inhibition of inward hSGLT2 glucose current (hSGLT2 [3]; 200 nmol/L TA-3404 intracellular, 150 mmol/L intracellular Na+): no significant inhibition
intracellular affinity of hSGLT2 lower than the extracellular affinity (hSGLT2 [3]; intracellular versus extracellular): at least 100
inhibition of SGLT2 from the intracellular compartment (hSGLT2 [3]; low (5 mmol/L) and high (150 mmol/L) intracellular NaCl): ineffective
inhibition of Na+/glucose currents generated by hSGLT2, inhibitor in the cytoplasm (hSGLT2 [3]; [12]): does not inhibit
IC50 (hSGLT1 [6]): 300 ± 61 nM
Ki (hSGLT1 [6]): 150 nM
half-time of recovery of hSGLT1 current (t1/2,off) (hSGLT1 [6]; after removal of inhibitor, n = 5): 5.4 ± 0.4 s
koff, hSGLT1 (hSGLT1 [6]; from half-time of current recovery): 0.2 per sec
inhibition of hSGLT2 sugar uptake (hSGLT2 [7]; 2 nmol/L TA-3404, 50 μmol/L α-MDG, HEK-293T, 37°C): 50%
IC50 (hSGLT2 [7]; 50 μmol/L [14C]-αMDG, 1-500 nmol/L extracellular TA-3404, HEK-293T, read-out: IC50, [14C]-αMDG uptake, hSGLT2): 3.9 ± 2.2 nM
affinity of hSGLT2 higher than for hSGLT1 (hSGLT2 [7]; HEK-293T): about 75 fold
IC50 (hSGLT2 [7]; as stated in the abstract, read-out: IC50, extracellular inhibition of glucose inward SGLT2 transport): 2 nM
Ki (hSGLT2 [7]; from IC50 (IC50 is twice the Ki), extracellular): ~2 nM
inhibition of glucose-induced inward current, hSGLT2 (hSGLT2 [8]; 300 nmol/L extracellular TA-3404, 100 mmol/L glucose, -60 mV, 37°C): completely inhibited
half-time of recovery of hSGLT2 current (t1/2,off) (hSGLT2 [8]; after removal of inhibitor, reversible ~50% component, n = 3): 17 ± 0.5 s
kon, hSGLT2 (hSGLT2 [8]; calculated from Ki and koff): 1.4 × 10^6 mol/L per sec
recovery of hSGLT2 current after removing the inhibitor (hSGLT2 [8]; washout, no further recovery over 5 min): ~ 50%
Compound: OC[C@H]1O[C@@H](c2ccc(Cl)c(Cc3ccc(-c4ccc(F)nc4)s3)c2)[C@H](O)[C@@H](O)[C@@H]1O [TA‐3404]
pharmacokinetic profiles [4]: favorable pharmacokinetic profiles
urine glucose excretion [4]: increased urine glucose excretion
IC50 (hSGLT2 [5]; CHOK1 cells overexpressing hSGLT2, read-out: IC50, Na+-dependent 14C-α-MDG uptake, SGLT2): 2 nM
selectivity for SGLT2 vs. SGLT1 (hSGLT2 [5]; CHOK1 cells, ratio of IC50): ~ 350 fold

Compound: CCOc1ccc(Cc2cc([C@@H]3O[C@H](CO)[C@@H](O)[C@H](O)[C@H]3O)ccc2Cl)cc1 [dapagliflozin]
Off rate of binding to hSGLT2 (hSGLT2 [9]): very slow Off rate
free plasma concentration [10]: 25 nM

Compound: O=C(CCc1ccc(O)cc1)c1c(O)cc(O)cc1O[C@@H]1O[C@H](CO)[C@@H](O)[C@H](O)[C@H]1O [phlorizin]
glomerular filtration [11, 13]: freely filtered
glucose reabsorption [11, 13]: completely blocks glucose reabsorption
route of excretion ([11]; ref Silverman [1974]): mainly excreted into the urine
Off rate, hSGLT2 (hSGLT2 [9]; phlorizin): 0.3 per sec
half-time of recovery of hSGLT2 current (t1/2,off) (hSGLT2 [9]): 24 s
effect on sugar uptake by hSGLT2 (hSGLT2 [7]; 100 μmol/L phlorizin, 50 μmol/L α-MDG, HEK-293T): to the level observed in untransfected cells

Compound: Cc1ccc([C@@H]2O[C@H](CO)[C@@H](O)[C@H](O)[C@H]2O)cc1Cc1ccc(-c2ccc(F)cc2)s1 [Canagliflozin, canagliflozin]
selectivity for hSGLT2 over hSGLT1 (hSGLT2 over hSGLT1): 414 fold
